US20200017496A1 (priority 2017, published 2020)
Where two headings read alike, the source gives them in different places.

Tested on: Escherichia coli (ECO) isolates
Assay: MIC of compounds alone and combined with antibacterials, broth microdilution (CLSI)
Format: cell-based
Details: for MIC: Escherichia coli
In short: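 Log-phase bacteria at a final 5·10^5 CFU/mL in cation-adjusted Mueller-Hinton broth were incubated 16-20 h at 35° C in ambient air with compound alone or with an antibacterial. MIC was the lowest concentration preventing visible growth; combination MIC of the antibacterial was read at each compound concentration.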

C=CC1=C(C(=O)O)N2C(=O)[C@@H](NC(=O)/C(=N\OCC(=O)O)c3csc(N)n3)[C@H]2SC1 [FIX, Cefixime]
MIC ATB in combination (ECO UFR212, AF1 @ 8 μg/mL): <=0.25 μg/mL
MIC ATB in combination (ECO UFR218, AF1 @ 4 μg/mL): <=0.25 μg/mL
MIC ATB in combination (ECO UFR218, AF1 @ 8 μg/mL): <=0.25 μg/mL
MIC (ECO 190317, alone, read-out: MIC): > 128 mg/L
MIC (ECO 190457, alone, read-out: MIC): 128 mg/L
MIC (ECO UFR16, alone, read-out: MIC): > 128 mg/L
MIC (ECO UFR20, alone): 512 mg/L
MIC (ECO UFR209, alone, read-out: MIC): 1020 mg/L
MIC (strain ECO 4133 (TEM-30, OXA-1), ATB alone): 0.5 mg/L
MIC (strain ECO 4133 (TEM-30, OXA-1), CLA @ 4 μg/ml+ ATB): 0.5 mg/L
MIC (strain ECO 5302 (TEM-1, OXA-1), ATB alone): 0.5 mg/L
MIC (strain ECO 5302 (TEM-1, OXA-1), CLA @ 4 μg/ml+ ATB): 0.5 mg/L
MIC (strain ECO 131119 (TEM-1, OXA-48), ATB alone): ≤ 0.25 mg/L
MIC (strain ECO 131119 (TEM-1, OXA-48), CLA @ 4 μg/ml+ ATB): ≤ 0.25 mg/L
MIC (strain ECO 180070 (TEM-1, CTX-M-15), ATB alone, read-out: MIC): 128 mg/L
MIC (strain ECO 190314 (CTX-M-1), ATB alone): 16 mg/L
MIC (strain ECO 190317 (TEM-1, SHV-12, CTX-M-15, OXA-1), ATB alone, read-out: MIC): > 128 mg/L
MIC (strain ECO 190317 (TEM-1, SHV-12, CTX-M-15, OXA-1), CLA @ 4 μg/ml+ ATB): 0.5 mg/L
MIC (strain ECO 190457 (CTX-M-15, OXA-1), ATB alone, read-out: MIC): 128 mg/L
MIC (strain ECO 190457 (CTX-M-15, OXA-1), CLA @ 4 μg/ml+ ATB): 0.5 mg/L
MIC (strain ECO 190549 (CTX-M-1), ATB alone): 16 mg/L
MIC (strain ECO 190549 (CTX-M-1), CLA @ 4 μg/ml+ ATB): 0.5 mg/L
MIC (strain ECO 200159 (TEM-1, CTX-M-14), ATB alone): 8 mg/L
MIC (strain ECO 200159 (TEM-1, CTX-M-14), CLA @ 4 μg/ml+ ATB): ≤ 0.25 mg/L
MIC (strain ECO 200259 (CTX-M-14), ATB alone): 8 mg/L
MIC (strain ECO 200259 (CTX-M-14), CLA @ 4 μg/ml+ ATB): ≤ 0.25 mg/L
MIC (strain ECO 200344 (CTX-M-1), CLA @ 4 μg/ml+ ATB): 0.5 mg/L
MIC (strain ECO 260096 (CTX-M-132), ATB alone, read-out: MIC): > 128 mg/L
MIC (strain ECO 260096 (CTX-M-132), CLA @ 4 μg/ml+ ATB): 1 mg/L
MIC (strain ECO 260304 (CTX-M-15), CLA @ 4 μg/ml+ ATB): 0.5 mg/L
MIC (strain ECO 260508 (TEM-1, CTX-M-15, OXA-1), ATB alone, read-out: MIC): > 128 mg/L
MIC (strain ECO 260508 (TEM-1, CTX-M-15, OXA-1), CLA @ 4 μg/ml+ ATB): 0.5 mg/L
MIC (strain ECO RGN238 (OXA-1), ATB alone): ≤ 0.25 mg/L
MIC (strain ECO RGN238 (OXA-1), CLA @ 4 μg/ml+ ATB): ≤ 0.25 mg/L
MIC (strain ECO UFR15 (TEM-1, OXA-48), ATB alone): 1 mg/L
MIC (strain ECO UFR15 (TEM-1, OXA-48), CLA @ 4 μg/ml+ ATB): 1 mg/L
MIC (strain ECO UFR16 (TEM-1, CTX-M-15, OXA-1, OXA-48), ATB alone, read-out: MIC): > 128 mg/L
MIC (strain ECO UFR16 (TEM-1, CTX-M-15, OXA-1, OXA-48), CLA @ 4 μg/ml+ ATB): 4 mg/L
MIC (strain ECO UFR17 (TEM-1, CTX-M-15, CMY-2, OXA-1, OXA-181), ATB alone, read-out: MIC): > 128 mg/L
MIC (strain ECO UFR17 (TEM-1, CTX-M-15, CMY-2, OXA-1, OXA-181), CLA @ 4 μg/ml+ ATB, read-out: MIC): > 128 mg/L
MIC (strain ECO UFR18 (CTX-M-15, OXA-204), ATB alone, read-out: MIC): > 128 mg/L
MIC (strain ECO UFR18 (CTX-M-15, OXA-204), CLA @ 4 μg/ml+ ATB, read-out: MIC): > 128 mg/L
MIC (strain ECO UFR19 (CTX-M-15, CMY-2, OXA-1, OXA-204), ATB alone, read-out: MIC): > 128 mg/L
MIC (strain ECO UFR19 (CTX-M-15, CMY-2, OXA-1, OXA-204), CLA @ 4 μg/ml+ ATB, read-out: MIC): > 128 mg/L
MIC (strain ECO UFR20 (SHV-1, CTX-M-15, OXA-1, OXA-232), ATB alone): 512 mg/L
MIC (strain ECO UFR20 (SHV-1, CTX-M-15, OXA-1, OXA-232), CLA @ 4 μg/ml+ ATB, read-out: MIC): > 128 mg/L
MIC (strain ECO UFR61O (TEM-1, KPC-2), CLA @ 4 μg/ml+ ATB, read-out: MIC): 32 mg/L
MIC (strain ECO UFR62 (TEM-1, CTX-M-9, KPC-2), ATB alone, read-out: MIC): 128 mg/L
MIC (strain ECO UFR62 (TEM-1, CTX-M-9, KPC-2), CLA @ 4 μg/ml+ ATB, read-out: MIC): 32 mg/L
MIC (strain ECO UFR74 (SHV-1, DHA-1), ATB alone, read-out: MIC): > 128 mg/L
MIC (strain ECO UFR74 (SHV-1, DHA-1), CLA @ 4 μg/ml+ ATB, read-out: MIC): > 128 mg/L
MIC (strain ECO UFR86 (ompC-, ompF-), ATB alone, read-out: MIC): 2 mg/L
MIC (strain ECO UFR86 (ompC-, ompF-), CLA @ 4 μg/ml+ ATB, read-out: MIC): 2 mg/L
MIC (strain ECO UFR174 (TEM-1, KPC-2, OXA-1), ATB alone): 8 mg/L
MIC (strain ECO UFR175 (TEM-1, KPC-2, OXA-9), ATB alone): 64 mg/L
MIC (strain ECO UFR175 (TEM-1, KPC-2, OXA-9), CLA @ 4 μg/ml+ ATB): 16 mg/L
MIC (strain ECO UFR176 (KPC-3, OXA-9*), ATB alone): 64 mg/L
MIC (strain ECO UFR184 (CTX-M-15, CMY-4, OXA-1, OXA-204), ATB alone, read-out: MIC): > 128 mg/L
MIC (strain ECO UFR184 (CTX-M-15, CMY-4, OXA-1, OXA-204), CLA @ 4 μg/ml+ ATB, read-out: MIC): > 128 mg/L
MIC (strain ECO UFR185 (OXA-48), ATB alone, read-out: MIC): > 128 mg/L
MIC (strain ECO UFR185 (OXA-48), CLA @ 4 μg/ml+ ATB, read-out: MIC): > 128 mg/L
MIC (strain ECO UFR186 (TEM-1, CTX-M-14, OXA-48), CLA @ 4 μg/ml+ ATB): 8 mg/L
MIC (strain ECO UFR189 (TEM-1, CTX-M-15, OXA-48), ATB alone, read-out: MIC): > 128 mg/L
MIC (strain ECO UFR189 (TEM-1, CTX-M-15, OXA-48), CLA @ 4 μg/ml+ ATB): 4 mg/L
MIC (strain ECO UFR190 (CTX-M-24, OXA-48), ATB alone): 64 mg/L
MIC (strain ECO UFR190 (CTX-M-24, OXA-48), CLA @ 4 μg/ml+ ATB): 8 mg/L
MIC (strain ECO UFR191 (TEM-1, CTX-M-24, OXA-48), ATB alone, read-out: MIC): > 128 mg/L
MIC (strain ECO UFR191 (TEM-1, CTX-M-24, OXA-48), CLA @ 4 μg/ml+ ATB): 4 mg/L
MIC (strain ECO UFR207 (CTX-M-15), ATB alone, read-out: MIC): > 128 mg/L
MIC (strain ECO UFR207 (CTX-M-15), CLA @ 4 μg/ml+ ATB): 1 mg/L
MIC (strain ECO UFR208 (SHV-12), ATB alone, read-out: MIC): > 128 mg/L
MIC (strain ECO UFR208 (SHV-12), CLA @ 4 μg/ml+ ATB, read-out: MIC): > 128 mg/L
MIC (strain ECO UFR209 (TEM-1, CTX-M-15), ATB alone, read-out: MIC): 1020 mg/L
MIC (strain ECO UFR209 (TEM-1, CTX-M-15), CLA @ 4 μg/ml+ ATB): 1 mg/L
MIC (strain ECO UFR210 (SHV-12), CLA @ 4 μg/ml+ ATB): 0.5 mg/L
MIC (strain ECO UFR211 (TEM-24), ATB alone, read-out: MIC): > 128 mg/L
MIC (strain ECO UFR212 (CMY-2), ATB alone, read-out: MIC): > 128 mg/L
MIC (strain ECO UFR212 (CMY-2), CLA @ 4 μg/ml+ ATB, read-out: MIC): > 128 mg/L
MIC (strain ECO UFR218 (TEM-1, SHV-1, CTX-M-15), ATB alone, read-out: MIC): > 128 mg/L
MIC (strain ECO UFR218 (TEM-1, SHV-1, CTX-M-15), CLA @ 4 μg/ml+ ATB): 1 mg/L
